Values after ≈ are worked out from the molar mass of the structure shown.
Key:
[1] = system: caspases; details: cited from earlier work
[2] = in vitro
[3] = system: Human promyelocytic leukemia cell HL-60; assay: cells; details: for IC50: HL-60, read-out: IC50 (50% inhibition concentration); for CC50: HL-60, read-out: LC50 (50% lethal concentration)
In short: (§1)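 Viable-cell proliferation was read by alamarBlue reduction to its fluorescent form. Each candidate was tested at 0.01, 0.1, 1, 10 and 100 μg/ml against the listed cancer and normal human cell lines.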

[4] = system: Human hepatocellular carcinoma cell HepG2; assay: cells; details: for IC50: HepG2, read-out: IC50 (50% inhibition concentration); for CC50: HepG2, read-out: LC50 (50% lethal concentration)
In short: as §1

[5] = system: Human umbilical venal epithelial cell (HUVEC); assay: cells; details: Homo sapiens, HUVEC, read-out: IC50 (50% inhibition concentration)
[6] = system: Human histocytic lymphoma cell U937; assay: cells; details: for IC50: U-937, read-out: IC50 (50% inhibition concentration); for CC50: U-937, read-out: LC50 (50% lethal concentration)
In short: as §1

[7] = system: Human breast adenocarcinoma cell MCF7; assay: cells; details: Homo sapiens; for IC50: MCF7, read-out: IC50 (50% inhibition concentration); for CC50: MCF7, read-out: LC50 (50% lethal concentration)
In short: as §1

[8] = system: Human colon adenocarcinoma cell HT-29; assay: cells; details: for IC50: HT-29, read-out: IC50 (50% inhibition concentration); for CC50: HT-29, read-out: LC50 (50% lethal concentration)
In short: as §1

[9] = system: Human lung carcinoma cell A549; assay: cells; details: for IC50: A549, read-out: IC50 (50% inhibition concentration); for CC50: A549, read-out: LC50 (50% lethal concentration)
In short: as §1

| SMILES | activator of caspases and inducer of apoptosis [1] | CC50 [2] [µg/mL] | IC50 [3] [µg/mL] | CC50 [3] [µg/mL] | IC50 [4] [µg/mL] | CC50 [4] [µg/mL] | IC50 [5] [µg/mL] | IC50 [6] [µg/mL] | CC50 [6] [µg/mL] | IC50 [7] [µg/mL] | CC50 [7] [µg/mL] | IC50 [8] [µg/mL] | CC50 [8] [µg/mL] | IC50 [9] [µg/mL] | CC50 [9] [µg/mL] |
| --- | --- | --- | --- | --- | --- | --- | --- | --- | --- | --- | --- | --- | --- | --- | --- |
| COC(=O)/C(C)=C\CC12OC(C)(C)C3CC(C=C4C(=O)c5c(O)c6c(c(CC=C(C)C)c5OC431)OC(C)(CCC(O)C(C)(C)O)C=C6)C2=O (stereo not shown) [methyl 37,38-dihydroxy-gambogate] | activator of caspases and an inducer of apoptosis | – | – | – | – | – | – | – | – | – | – | – | – | – | – |
| CC(C)=CCC[C@]1(C)C=Cc2c(O)c3c(c(CC=C(C)C)c2O1)O[C@]12C(=C[C@@H]4CC1C(C)(C)O[C@]2(C/C=C(\C)C(=O)O)C4=O)C3=O [Gh-1641, isogambogic acid] | – | 1.3 (≈ 2.07 µM) | 8 (≈ 12.7 µM) | 32 (≈ 50.9 µM) | 0.86 (≈ 1.37 µM) | 4.5 (≈ 7.16 µM) | 0.18 (≈ 0.286 µM) | 9.4 (≈ 15 µM) | 36 (≈ 57.3 µM) | 1.7 (≈ 2.7 µM) | 33 (≈ 52.5 µM) | 1.4 (≈ 2.23 µM) | 4.4 (≈ 7 µM) | 0.47 (≈ 0.748 µM) | 3 (≈ 4.77 µM) |
| CC(C)=CCC/C(C)=C/Cc1c(O)c(CC=C(C)C)c2c(c1O)C(=O)C1=C[C@@H]3CC4C(C)(C)O[C@](C/C=C(\C)C(=O)O)(C3=O)[C@@]14O2 [Gh-2642, isogambogenic acid] | – | 11 (≈ 17.4 µM) | 9 (≈ 14.3 µM) | 32 (≈ 50.7 µM) | 11 (≈ 17.4 µM) | 29 (≈ 46 µM) | 2.4 (≈ 3.8 µM) | 1.3 (≈ 2.06 µM) | 4.1 (≈ 6.5 µM) | 3 (≈ 4.76 µM) | 10 (≈ 15.9 µM) | 12 (≈ 19 µM) | 42 (≈ 66.6 µM) | 1.5 (≈ 2.38 µM) | 4.6 (≈ 7.29 µM) |
| CC(C)=CCC[C@@]1(C)C=Cc2c(O)c3c(c(CC=C(C)C)c2O1)O[C@]12C(=C[C@@H]4CC1C(C)(C)O[C@]2(C/C=C(/C)C(=O)O)C4=O)C3=O [Gh-2606, epigambogic acid] | – | 1.4 (≈ 2.23 µM) | 0.66 (≈ 1.05 µM) | 2.4 (≈ 3.82 µM) | 0.38 (≈ 0.604 µM) | 3 (≈ 4.77 µM) | 0.11 (≈ 0.175 µM) | 0.41 (≈ 0.652 µM) | 3.1 (≈ 4.93 µM) | 1.3 (≈ 2.07 µM) | 1.6 (≈ 2.54 µM) | 0.39 (≈ 0.62 µM) | 2 (≈ 3.18 µM) | 0.1 (≈ 0.159 µM) | 0.31 (≈ 0.493 µM) |

— patent US9498463B2, “Compound obtained from gamboge resin, and medical uses of the same” (priority 2010, dated 2016)
